The target of the experiment is T1, human mineralocorticoid receptor (MR) (Homo sapiens, UniProt P08235).
T1 construct: expressed in transfected cells
T1 sequence (P08235 734-984 limits assumed): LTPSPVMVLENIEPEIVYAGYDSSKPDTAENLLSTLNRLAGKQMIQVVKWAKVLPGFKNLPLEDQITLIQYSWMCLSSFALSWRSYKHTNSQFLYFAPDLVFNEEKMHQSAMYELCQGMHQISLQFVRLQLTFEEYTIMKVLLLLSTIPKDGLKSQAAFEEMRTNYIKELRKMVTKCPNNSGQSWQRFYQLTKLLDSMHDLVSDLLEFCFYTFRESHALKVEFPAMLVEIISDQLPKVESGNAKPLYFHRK
Description: Cellular in vitro assay to determine the inhibitory MR activity (GAL4-MR chimera luciferase reporter in CHO K1 cells). It counts as cell-based. To be noted: antagonism of aldosterone-stimulated luciferase in CHO K1 cells expressing GAL4-MR chimera. The text has this:
1. Cellular In Vitro Assay to Determine the Inhibitory MR Activity and MR Selectivity Compared with Other Steroid Hormone Receptors
Antagonists of the human mineralocorticoid receptor (MR) are identified, and the activity of the compounds described herein is quantified with the aid of a recombinant cell line. The cell is originally derived from a hamster ovary epithelial cell (Chinese Hamster Ovary, CHO K1, ATCC: American Type Culture Collection, VA 20108, USA).
An established chimera system in which the ligand-binding domains of human steroid hormone receptors are fused to the DNA binding domain of the yeast transcription factor GAL4 is used in this CHO K1 cell line. The GAL4-steroid hormone receptor chimeras produced in this way are cotransfected and stably expressed with a reporter construct in the CHO cells.
To generate the GAL4-steroid hormone receptor chimeras, the GAL4 DNA binding domain (amino acids 1-147) from the vector pFC2-dbd (from Stratagene) is cloned with the PCR-amplified ligand-binding domains of the mineralocorticoid receptor (MR, amino acids 734-985), of the glucocorticoid receptor (GR, amino acids 443-777), of the progesterone receptor (PR, amino acids 680-933) and of the androgen receptor (AR, amino acids 667-919) into the vector pIRES2 (from Clontech). The reporter construct, which comprises five copies of the GAL4 binding site upstream of a thymidine kinase promoter, leads to expression of firefly luciferase (Photinus pyralis) after activation and binding of the GAL4-steroid hormone receptor chimeras by the respective specific agonists aldosterone (MR), dexamethasone (GR), progesterone (PR) and dihydrotestosterone (AR).
The MR, GR, PR and AR cells are plated out in medium (Optimem, 2.5% FCS, 2 mM glutamine, 10 mM HEPES) in 96- (or 384- or 1536-) well microtiter plates on the day before the assay and are kept in a cell incubator (96% humidity, 5% v/v CO2, 37° C.). On the day of the assay, the substances to be tested are taken up in the abovementioned medium and added to the cells. About 10 to 30 minutes after addition of the test substances, the respective specific agonists of the steroid hormone receptors are added. After a further incubation time of 5 to 6 hours, the luciferase activity is measured with the aid of a video camera. The measured relative light units as a function of the substance concentration result in a sigmoidal stimulation curve. The IC50 values are calculated with the aid of the GraphPad PRISM computer program (Version 3.02).
On the technique in general: Reporter assays use an easily measured gene product as a stand-in for the process of interest.
As for `CCOC(=O)C1=C(C)NC(C(F)(F)F)=C(C#N)C1c1cccc2c(=O)cc(C)oc12` (racemic) [Example 29, Ethyl 5-cyano-2-methyl-4-(2-methyl-4-oxo-4H-chromen-8-yl)-6-(trifluoromethyl)-1,4-dihydropyridine-3-carboxylate], 193 nM corresponded to half-maximal inhibition (IC50).
With `CC1=C(C#N)[C@@H](c2cc(F)c(F)c3c(=O)cc(C)oc23)C(C(=O)OC2CCC2)=C(C)N1` (single isomer, unassigned) [Example 18] the figure was 22 nM; with `CCOC(=O)C1=C(C)NC(C(F)(F)F)=C(C#N)[C@H]1c1cccc2c(=O)cc(C)oc12` (single isomer, unassigned) [Example 30], 89 nM.
In the case of `CC1=C(C#N)C(c2ccc(F)c3c(=O)cc(C)oc23)C(C(=O)CC2CCC2)=C(C)N1` (centres unmarked) [Example 13, 5-(Cyclobutylacetyl)-4-(5-fluoro-2-methyl-4-oxo-4H-chromen-8-yl)-2,6-dimethyl-1,4-dihydropyridine-3-carbonitrile], 127 nM corresponded to half-maximal inhibition (IC50).
The result for `CC1=C(C#N)C(c2ccc(F)c3c(=O)cc(C)oc23)C(C(=O)CCC(C)C)=C(C)N1` (centres unmarked) [Example 14, 4-(5-Fluoro-2-methyl-4-oxo-4H-chromen-8-yl)-2,6-dimethyl-5-(4-methylpentanoyl)-1,4-dihydropyridine-3-carbonitrile] reads 195 nM; that for `CC1=C(C#N)C(c2ccc(F)c3c(=O)cc(C)oc23)C(C(=O)CCC2CCC2)=C(C)N1` (centres unmarked) [Example 15, 5-(3-Cyclobutylpropanoyl)-4-(5-fluoro-2-methyl-4-oxo-4H-chromen-8-yl)-2,6-dimethyl-1,4-dihydropyridine-3-carbonitrile], 93 nM.
With `CC1=C(C#N)C(c2ccc([N+](=O)[O-])c3c(=O)cc(C)oc23)C(C(=O)OC(C)C)=C(C)N1` (centres unmarked) [Example 32, Isopropyl 5-cyano-2,6-dimethyl-4-(2-methyl-5-nitro-4-oxo-4H-chromen-8-yl)-1,4-dihydropyridine-3-carboxylate] the figure was 105 nM; with `CC1=C(C#N)C(c2cccc3c(=O)cc(C)oc23)C(C(=O)CC2CCCC2)=C(C)N1` (centres unmarked) [Example 41, 5-(Cyclopentylacetyl)-2,6-dimethyl-4-(2-methyl-4-oxo-4H-chromen-8-yl)-1,4-dihydropyridine-3-carbonitrile], 290 nM.

The values are drawn from patent publication US8058447B2, “4-Chromenonyl-1,4-dihydropyridinecarbonitriles and the use thereof” (Bayer Pharma Aktiengesellschaft, priority 2005, dated 2011).
